Assay results from ChEMBL document CHEMBL1201862, “PubChem BioAssay data set” (2004).
Calls of active or inactive are those of the source.

Experiments:
[1] = intracellular Trypanosoma cruzi inhibitors in host cells – cell-based, plate reader, cherry-pick samples, set 3, dose response (AID 651818); assay type: functional;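 also: compounds incubated with infected cells for about four days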
[2] = viability loss in CEM21 cells – cell-based, CellTiter-Glo luminescence, cherry-picked, cytotoxicity control for viral fusion inhibitor project, dose response (AID 652042); assay type: functional;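 also: potency for signal decrease meaning cytotoxicity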
[3] = viability of PTEN-deleted HCT116 cells – cell-based, HCT116 PTEN knockout, dose response (AID 1047); assay type: functional;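 also: HCT116 colon tumor cells with PTEN knocked out; cells exposed to compound for 60 hours before readout; potency for loss of cell viability measured by luminescence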
[4] = viability of HCT116 lacking mutant beta-catenin – cell-based, human colon tumor, dose response (AID 1045); assay type: functional;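 also: HCT116 colon tumor cells with beta catenin knocked out; cells exposed to compound for 60 hours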
[5] = Trypanosoma cruzi growth suppression in host cells – NIH3T3 host cells, beta-gal luminescence, confirmation (AID 2044); assay type: functional, cell-based;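 also: intracellular parasites grown in NIH/3T3 mouse fibroblasts as host cells; luminescent beta-galactosidase reporter signal from transgenic T. cruzi replicating inside host cells; inhibitors lower the luminescence signal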
[6] = HIV-1 AD8 envelope cell-cell fusion blockers – cherry-pick, dose response (AID 652062); assay type: functional, cell-based;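 also: luciferase signal from cell-cell fusion driven by HIV-1 clade B AD8 Env; potency is for inhibitors of fusion seen as a drop in luminescence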
[7] = NIH3T3 cell viability loss – ATP luminescence, mouse fibroblasts, counter-screen, dose response (AID 2010); assay type: functional, cell-based;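 also: cells exposed to compound for about 90 hours before reading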
Protein skinhead-1 = molecular target: T1, Protein skinhead-1 (Caenorhabditis elegans, UniProt P34707); assay type: functional
T1 sequence (P34707 whole entry): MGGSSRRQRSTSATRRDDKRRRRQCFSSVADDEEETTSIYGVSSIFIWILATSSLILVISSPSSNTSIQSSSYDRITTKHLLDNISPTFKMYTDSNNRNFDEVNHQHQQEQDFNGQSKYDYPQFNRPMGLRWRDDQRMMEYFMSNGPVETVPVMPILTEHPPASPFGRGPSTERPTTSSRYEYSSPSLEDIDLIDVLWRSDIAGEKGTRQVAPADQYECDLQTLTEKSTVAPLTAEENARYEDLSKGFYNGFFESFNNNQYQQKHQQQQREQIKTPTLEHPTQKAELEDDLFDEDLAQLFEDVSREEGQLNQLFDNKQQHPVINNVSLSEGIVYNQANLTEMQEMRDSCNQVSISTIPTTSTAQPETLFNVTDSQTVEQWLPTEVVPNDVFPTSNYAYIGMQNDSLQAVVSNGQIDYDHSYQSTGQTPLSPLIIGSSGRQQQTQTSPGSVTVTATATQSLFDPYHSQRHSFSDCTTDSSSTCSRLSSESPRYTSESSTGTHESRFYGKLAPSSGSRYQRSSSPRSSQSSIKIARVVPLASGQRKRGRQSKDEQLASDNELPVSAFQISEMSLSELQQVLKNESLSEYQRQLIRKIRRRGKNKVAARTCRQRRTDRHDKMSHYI

[8] = inhibition of ADAM10 peptide cleavage – biochemical, FRET peptide substrate, recombinant human ADAM10, selectivity assay for ADAM17 exosite inhibitor project, dose response (AID 743259);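 also: ADAM10 enzyme cleaving a FRET peptide substrate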
[9] = molecular target: Disintegrin and metalloproteinase domain-containing protein 17 (Homo sapiens, UniProt P78536); assay: exosite inhibitors of ADAM17, dose response, biochemical (AID 743260)
Sequence of Disintegrin and metalloproteinase domain-containing protein 17 (P78536 whole entry, the tested form may be a part): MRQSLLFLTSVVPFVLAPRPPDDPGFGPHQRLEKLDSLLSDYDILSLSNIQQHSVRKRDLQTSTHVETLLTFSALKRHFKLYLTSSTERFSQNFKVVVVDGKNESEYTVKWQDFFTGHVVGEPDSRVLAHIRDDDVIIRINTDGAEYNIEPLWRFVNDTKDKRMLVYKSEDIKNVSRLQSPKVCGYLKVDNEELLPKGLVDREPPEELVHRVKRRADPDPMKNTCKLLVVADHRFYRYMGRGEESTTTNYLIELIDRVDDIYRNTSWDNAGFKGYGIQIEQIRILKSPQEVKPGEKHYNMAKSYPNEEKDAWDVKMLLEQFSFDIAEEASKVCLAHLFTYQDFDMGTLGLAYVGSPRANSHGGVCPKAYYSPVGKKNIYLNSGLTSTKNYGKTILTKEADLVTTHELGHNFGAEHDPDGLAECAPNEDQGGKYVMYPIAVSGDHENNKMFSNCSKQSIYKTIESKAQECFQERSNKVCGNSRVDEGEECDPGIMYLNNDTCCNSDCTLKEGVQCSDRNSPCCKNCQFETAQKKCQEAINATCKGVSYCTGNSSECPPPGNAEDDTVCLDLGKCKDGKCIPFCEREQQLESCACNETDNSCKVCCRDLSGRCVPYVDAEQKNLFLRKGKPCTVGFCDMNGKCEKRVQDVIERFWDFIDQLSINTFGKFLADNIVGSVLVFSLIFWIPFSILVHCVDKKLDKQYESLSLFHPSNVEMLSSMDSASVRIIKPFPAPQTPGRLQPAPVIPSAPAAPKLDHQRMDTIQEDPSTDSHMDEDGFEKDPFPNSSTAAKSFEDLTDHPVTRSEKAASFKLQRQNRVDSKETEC

[10] = activation of miR-122 Renilla sensor silencing – cell-based, Huh7 psiCHECK-miR122, Renilla luciferase, cherry-picked, dose response (AID 651956); assay type: functional;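 also: huh7 hepatoma cells stably carrying a psiCHECK-2 miR-122 sensor plasmid; renilla luciferase signal reporting endogenous miR-122 activity after 48 h compound exposure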
[11] = blockers of HIV-1 envelope-mediated cell-cell fusion – cherry-pick, dose response (AID 652057); assay type: functional, cell-based
[12] = blockers of HIV-1 ZM109 envelope-driven cell-cell fusion – HeLa effector, CEM target cells, luciferase, cherry-pick, dose response (AID 652058); assay type: functional, cell-based;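 also: luciferase signal from HIV-1 Env mediated cell-cell fusion of effector and target cells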
[13] = off-target signal loss in HeLa-CEM21 co-culture – HeLa F-luc CTL cells, cherry-picked, counter-screen for HIV-1 Env fusion inhibitor project, dose response (AID 652040); assay type: functional, cell-based;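 also: potency for signal decrease marking cytotoxic or nonspecific inhibition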
[14] = Luminescence Cell-Based Dose Retest to Confirm Inhibitors of Cancer Stem Cells. [Related pubchem assays (depositor defined):AID2717, AID2721]; assay type: functional; details: Homo sapiens
[15] = molecular target: T2, Microphthalmia-associated transcription factor (Homo sapiens, UniProt O75030); assay: reducers of TRPM1 reporter luminescence, concentration series – cell-based, SK-MEL-5, cherry-picked, set 3, MITF inhibitor project, dose response (AID 493073); assay type: functional;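 also: SK-MEL-5 melanoma cells with luciferase driven by the MITF target TRPM1 promoter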
T2 sequence (O75030 whole entry): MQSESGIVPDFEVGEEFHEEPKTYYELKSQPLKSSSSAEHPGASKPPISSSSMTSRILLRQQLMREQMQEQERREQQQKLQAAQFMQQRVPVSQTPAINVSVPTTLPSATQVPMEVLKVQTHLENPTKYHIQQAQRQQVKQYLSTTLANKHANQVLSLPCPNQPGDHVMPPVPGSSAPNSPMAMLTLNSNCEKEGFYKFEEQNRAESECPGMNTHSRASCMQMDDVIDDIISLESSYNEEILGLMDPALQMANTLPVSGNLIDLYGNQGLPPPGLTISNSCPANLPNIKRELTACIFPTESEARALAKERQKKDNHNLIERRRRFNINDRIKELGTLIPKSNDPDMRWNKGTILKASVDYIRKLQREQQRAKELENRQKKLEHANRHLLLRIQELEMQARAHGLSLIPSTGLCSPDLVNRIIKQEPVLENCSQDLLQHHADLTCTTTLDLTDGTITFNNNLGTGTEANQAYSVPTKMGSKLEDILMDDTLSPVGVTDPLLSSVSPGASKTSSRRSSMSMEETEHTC

[16] = molecular target: T3, Methionyl-tRNA synthetase, putative (Trypanosoma brucei brucei, UniProt Q38C91); assay type: functional, Trypanosoma brucei brucei strain 927/4 GUTat10.1
T3 sequence (Q38C91 whole entry): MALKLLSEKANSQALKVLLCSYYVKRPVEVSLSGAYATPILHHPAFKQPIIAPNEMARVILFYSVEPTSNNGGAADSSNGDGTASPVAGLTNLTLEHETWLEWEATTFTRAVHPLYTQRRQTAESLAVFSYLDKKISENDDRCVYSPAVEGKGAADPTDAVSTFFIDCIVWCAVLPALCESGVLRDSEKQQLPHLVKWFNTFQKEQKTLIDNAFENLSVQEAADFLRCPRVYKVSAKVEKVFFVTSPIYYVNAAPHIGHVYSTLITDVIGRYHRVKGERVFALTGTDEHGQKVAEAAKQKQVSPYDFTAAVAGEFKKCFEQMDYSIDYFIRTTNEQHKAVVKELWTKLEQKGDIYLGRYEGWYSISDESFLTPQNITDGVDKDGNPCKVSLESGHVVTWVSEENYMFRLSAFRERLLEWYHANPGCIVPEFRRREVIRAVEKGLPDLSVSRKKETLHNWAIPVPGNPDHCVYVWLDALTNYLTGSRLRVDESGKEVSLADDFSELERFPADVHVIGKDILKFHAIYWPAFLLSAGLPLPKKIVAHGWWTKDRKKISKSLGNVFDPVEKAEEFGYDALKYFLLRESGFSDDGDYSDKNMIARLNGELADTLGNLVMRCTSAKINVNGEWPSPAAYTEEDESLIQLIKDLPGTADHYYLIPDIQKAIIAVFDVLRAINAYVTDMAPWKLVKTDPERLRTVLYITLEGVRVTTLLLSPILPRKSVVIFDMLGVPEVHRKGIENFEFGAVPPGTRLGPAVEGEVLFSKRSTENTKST

[17] = molecular target: T3, Methionyl-tRNA synthetase, putative; assay type: functional, Trypanosoma brucei brucei strain 927/4 GUTat10.1; remark: listed apart in the source
[18] = Counterscreen for inhibitors of Trypanosoma brucei methionyl tRNA synthetase (MetRS): Luminescence-based cell-based high throughput dose response assay to identify compounds that are cytotoxic to Jurkat human T lymphocyte cells.; assay type: functional
[19] = HEK-293T viability loss after treatment – luminescence, T-cell screen hits, cytotoxicity control for TCR NF-kB inhibitor project, dose response (AID 489026); assay type: functional, cell-based;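 also: cells exposed to compound about 14 hours before the viability readout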
H9c2 = assay: cells; assay type: functional, cell-based; details: Rattus norvegicus, H9c2, Myocardium;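 also: confirmatory concentration-response retest of ultra-high-throughput screening hits for modulation of myocardial damage; cell death induced by hydrogen peroxide oxidative stress; compound pretreatment for 60 min then peroxide exposure for 2 h; potency is for protecting the cells against peroxide damage rather than for killing them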
[20] = alpha-synuclein stem-loop luciferase translation blockers – H4 neuroglioma cells, luminescence, confirmation (AID 1988); assay type: functional, cell-based
[21] = Luminescence Cell-Based Dose Response HTS to Identify Inhibitors of 5'UTR Stem-Loop Driven Prion Protein mRNA Translation in H4 Neuroglioblastoma Cells. [Related pubchem assays: 1827 (Project Summary), 1813 (Primary HTS)]; assay type: functional
[22] = luciferase reporter signal suppression in cells – H4 neuroglioma cells, luminescence, dose response (AID 1990); assay type: functional, cell-based
[23] = molecular target: T4, DNA repair and recombination protein RAD54-like (Homo sapiens, UniProt Q92698); assay: RAD54 Holliday junction migration blockers – biochemical, fluorescence, cherry-picked samples, dose series, confirmation (AID 651657); assay type: functional
T4 sequence (Q92698 whole entry): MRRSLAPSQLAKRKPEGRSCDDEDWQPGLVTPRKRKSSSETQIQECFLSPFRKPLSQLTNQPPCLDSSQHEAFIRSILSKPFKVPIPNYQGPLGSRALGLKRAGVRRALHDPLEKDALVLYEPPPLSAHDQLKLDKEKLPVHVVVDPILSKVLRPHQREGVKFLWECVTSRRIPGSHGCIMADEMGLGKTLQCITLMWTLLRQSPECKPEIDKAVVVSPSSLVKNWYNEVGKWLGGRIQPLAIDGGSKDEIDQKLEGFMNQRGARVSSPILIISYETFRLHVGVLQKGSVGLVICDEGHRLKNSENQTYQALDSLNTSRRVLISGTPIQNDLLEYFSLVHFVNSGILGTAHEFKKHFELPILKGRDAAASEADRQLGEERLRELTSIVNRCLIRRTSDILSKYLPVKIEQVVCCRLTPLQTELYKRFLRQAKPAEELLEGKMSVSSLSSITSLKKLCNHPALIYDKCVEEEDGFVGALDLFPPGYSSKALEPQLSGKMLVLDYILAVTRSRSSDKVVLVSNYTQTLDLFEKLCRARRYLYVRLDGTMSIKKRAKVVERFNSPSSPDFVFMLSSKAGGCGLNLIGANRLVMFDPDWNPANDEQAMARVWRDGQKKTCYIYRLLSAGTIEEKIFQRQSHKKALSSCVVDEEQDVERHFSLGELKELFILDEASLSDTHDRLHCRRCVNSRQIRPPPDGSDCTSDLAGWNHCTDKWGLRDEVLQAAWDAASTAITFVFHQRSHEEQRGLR

C[C@@H]1CN([C@H](C)CO)C(=O)c2cccc(NC(=O)c3ccc(-c4nccs4)cc3)c2O[C@@H]1CN(C)Cc1ccc(C(=O)Nc2ccccc2N)cc1
AC50 [1]: 1.69 µM (active)

c1coc(CNc2c3c(nc4ccccc24)CCC3)c1
AC50 [2]: 65 µM (active)
EC50 [3]: 22.5 µM (active)
EC50 [4]: 27.1 µM (active)
EC50 [5]: 2.41 µM (active)
AC50 [6]: 32.9 µM (active)
EC50 [7]: > 60 µM (not active)

Cc1cccc(C)c1N(CC(=O)Nc1cccc(N(C)S(C)(=O)=O)c1)S(C)(=O)=O
IC50 (Protein skinhead-1): > 100 µM (inactive)

CCCn1c(O)nnc1SCC(=O)c1ccc2c(c1)OCCO2
IC50 (Protein skinhead-1): > 100 µM (inactive)

CN(c1ccccc1)c1nc2ccsc2c(=O)s1
IC50 (Protein skinhead-1): > 100 µM (inactive)

C[C@@H]1CN([C@H](C)CO)C(=O)c2cc(NC(=O)NC3CCCCC3)ccc2O[C@H]1CN(C)Cc1ccc(Oc2ccccc2)cc1
AC50 [1]: 6.06 µM (active)

Cc1ccc(/N=C2\C(Cl)=C(O)OC2OC(=O)c2ccc(C)cc2)cc1 (stereo unspecified)
IC50 [8]: > 7.73 µM (active)
IC50 [9]: > 69.5 µM (inactive)

C[C@@H]1CN([C@@H](C)CO)S(=O)(=O)c2ccc(/C=C/c3ccccc3)cc2O[C@@H]1CN(C)C(=O)c1cccnc1
AC50 [10]: 3.93 µM (active)

CC(C)C[C@H](CO)N(Cc1ccccc1)S(=O)(=O)N(Cc1ccccc1)[C@@H](CO)CC(C)C
AC50 [2]: 9.89 µM (active)
AC50 [11]: 2.8 µM (active)
AC50 [6]: 8.16 µM (active)
AC50 [12]: 3.38 µM (active)
AC50 [13]: 12.4 µM (active)
AC50 [14]: 3.47 µM (active)

CCn1c(/C=C/N(C)c2ccccc2)[n+](CC)c2cc(Cl)ccc21
AC50 [2]: 35.5 µM (active)
EC50 [5]: 0.286 µM (active)
AC50 [15]: 6.86 µM (active)
AC50 [6]: 9.72 µM (active)
AC50 [12]: 59.3 µM (active)
EC50 [7]: 21.5 µM (active)

Cc1cccc(COc2ccccc2C(=O)N(C)CC(=O)Nc2cccc(F)c2)c1
IC50 [8]: 25.5 µM (inactive)
IC50 [9]: > 69.5 µM (inactive)

O=C(OC(C(=O)c1c[nH]c2ccccc12)c1ccccc1)c1cnccn1 (stereo unspecified)
IC50 [16]: 32.3 µM (inactive)
IC50 [17]: 59.3 µM (inactive)
IC50 [18]: 83.3 µM (inactive)

O=C(NC1CCCCN(Cc2cccc(Cl)c2)C1=O)c1ccc(COc2ccccc2)cc1 (stereo unspecified)
IC50 [8]: 20.7 µM (inactive)
IC50 [9]: > 69.5 µM (inactive)

COc1ccc(NC(=O)c2ccc3c(c2)OCO3)cc1Cl
IC50 (Protein skinhead-1): > 100 µM (inactive)

COc1ccc(S(=O)(=O)N(C)C[C@H]2Oc3c(NC(=O)Nc4ccc(C(F)(F)F)cc4)cccc3C(=O)N([C@@H](C)CO)C[C@@H]2C)cc1
AC50 [1]: 5.69 µM (active)

O=C(NCCCCc1ccccc1)Nc1ccc(F)cc1
IC50 [16]: 44.4 µM (inactive)
IC50 [17]: 119 µM (inactive)
IC50 [18]: 83.4 µM (inactive)

CCOc1ccccc1N1CC(=O)C(c2nc3ccccc3s2)=C1N
IC50 [19]: 44.6 µM (inactive)
IC50 (H9c2): > 79 µM (inactive)
EC50 [20]: 4.59 µM (active)
EC50 [21]: 10.1 µM (active)
EC50 [22]: 6.86 µM (inconclusive)

CN(C)S(=O)(=O)c1cccc(NC(=O)c2ccc(-n3cncn3)c([N+](=O)[O-])c2)c1
IC50 [16]: 4.49 µM (active)
IC50 [17]: 9.02 µM (active)
IC50 [18]: 83.3 µM (inactive)

Cc1noc(C)c1S(=O)(=O)Nc1ccc2c(c1)CC(=O)N([C@H](C)CO)C[C@@H](C)[C@@H](CN(C)Cc1ccc(Oc3ccccc3)cc1)O2
AC50 [1]: 5.85 µM (active)

CCN(CC)S(=O)(=O)c1cc(NC(=O)Cc2ccc(S(=O)(=O)N3CCOCC3)s2)ccc1Cl
IC50 [8]: 11.4 µM (inactive)
IC50 [9]: > 69.5 µM (inactive)

CC(CCCN1CCCC1)Nc1ccnc2cc(Cl)ccc12 (stereo unspecified) [Chloroquine-pyrolidinyl]
AC50 [23]: 35.7 µM (active)

COc1ccc(C(=O)Nc2ccc3nc(N4CCN(C)CC4)cc(C)c3c2)c(OC)c1
AC50 [23]: 32.9 µM (active)
